According to ChEMBL document CHEMBL1212755, “Factors influencing pharmacokinetics of prophylactic posaconazole in patients undergoing allogeneic stem cell transplantation” (Antimicrob Agents Chemother, 2010):

How the values were obtained:
Type in all cases: ADME, organism-based
[1] = Apparent oral clearance in patient with diarrhea undergoing allogenic hematopoietic stem cell transplantation; conditions: human, in vivo
[2] = Apparent volume of distribution in patient with diarrhea undergoing allogenic hematopoietic stem cell transplantation; conditions: human, in vivo; read-out: Vc/F
[3] = Apparent oral clearance in patient without diarrhea undergoing allogenic hematopoietic stem cell transplantation; conditions: human, in vivo
[4] = Apparent volume of distribution in patient without diarrhea undergoing allogenic hematopoietic stem cell transplantation; conditions: human, in vivo; read-out: Vc/F
Homo sapiens = organism: Homo sapiens; experiment: Drug level in patient undergoing allogenic hematopoietic stem cell transplantation; conditions: in vivo
[5] = Apparent volume of distribution in patient undergoing allogenic hematopoietic stem cell transplantation; conditions: human, in vivo; read-out: Vc/F
[6] = Cmax in patient undergoing allogenic hematopoietic stem cell transplantation; conditions: human, in vivo
[7] = Apparent oral clearance in patient undergoing allogenic hematopoietic stem cell transplantation; conditions: human, in vivo

CC[C@@H]([C@H](C)O)n1ncn(-c2ccc(N3CCN(c4ccc(OC[C@@H]5CO[C@@](Cn6cncn6)(c6ccc(F)cc6F)C5)cc4)CC3)cc2)c1=O [POSACONAZOLE]
CL/F [1]: 1890 mL/min
Vd/F [2]: 3800 L
CL/F [3]: 1120 mL/min
Vd/F [4]: 2250 L
Drug uptake (Homo sapiens): 411 µg/L
Vd/F [5]: 835 L
Cmax [6]: 654 ng/mL
CL/F [7]: 1260 mL/min
